Reference: patent US10493070B2 (priority 2016, dated 2019)

tested on: recombinant NL4-3 virus (NLRluc, Renilla luciferase in nef, Gag P373S); experiment: HIV cell culture assay (Renilla luciferase reporter virus in MT-2 cells); type: cell-based; settings: Renilla, NL43, read-out: 10% FBS EC50, 10% FBS, class symbols A/B/C
Procedure: MT-2 cells and 293T cells were obtained from the NIH AIDS Research and Reference Reagent Program. MT-2 cells were propagated in RPMI 1640 media supplemented with 10% heat inactivated fetal bovine serum, […]. The 293T cells were propagated in DMEM media supplemented with 10% heat inactivated fetal bovine serum (FBS), 100 units/ml penicillin G and 100 μg/ml streptomycin. The proviral DNA clone of NL4-3 was obtained from the NIH AIDS Research and Reference Reagent Program. A recombinant NL4-3 virus, in which a section of the nef gene from NL4-3 was replaced with the Renilla luciferase gene, was used as a reference virus. In addition, residue Gag P373 was converted to P373S. Briefly, the recombinant virus was prepared by transfection of the altered proviral clone of NL4-3. Transfections were performed in 293T cells using LipofectAMINE PLUS from Invitrogen (Carlsbad, Calif.), according to manufacturer's instruction. The virus was titered in MT-2 cells using luciferase enzyme activity as a marker. Luciferase was quantitated using the Dual Luciferase kit from Promega (Madison, Wis.), with modifications to the manufacturer's protocol. The diluted Passive Lysis solution was pre-mixed with the re-suspended Luciferase Assay Reagent and the re-suspended Stop & Glo Substrate (2:1:1 ratio). Fifty (50) μL of the mixture was added to each aspirated well on assay plates and luciferase activity was measured immediately on a Wallac TriLux (Perkin-Elmer). Antiviral activities of inhibitors toward the recombinant virus were quantified by measuring luciferase activity in cells infected for 4-5 days with NLRluc recombinants in the presence serial dilutions of the inhibitor. Table 16 is the key for the data in Table 17.

| Structure (SMILES) | EC50 [nM] |
| --- | --- |
| CC1(C)C(c2ccc(C(=O)O)cc2)=CC[C@]2(C)CN(C(=O)c3ccc4[nH]ccc4c3)CC=C12 [Example 43] | > 3000 |
| CC(C)(C)OC(=O)N[C@H]1CC[C@H](C(=O)N2CC=C3C(C)(C)C(c4ccc(C(=O)O)cc4)=CC[C@]3(C)C2)CC1 [Example 15] | > 3000 |
| CC1(C)C(c2ccc(C(=O)O)cc2)=CC[C@]2(C)CN(C(=O)c3nc4ccccc4[nH]3)CC=C12 [Example A66] | > 3000 |
| CC(C)(C)OC(=O)N[C@H]1CC[C@@H](C(=O)N2CC=C3C(C)(C)C(c4ccc(C(=O)O)cc4)=CC[C@]3(C)C2)CC1 [Example 16] | > 3000 |
| COc1ccc(C(=O)N2CC=C3C(C)(C)C(c4ccc(C(=O)O)cc4)=CC[C@]3(C)C2)cc1 [Example 19] | > 3000 |
| CC1(C)C(c2ccc(C(=O)O)cc2)=CC[C@]2(C)CN(C(=O)C(=O)N3CC=C4C(C)(C)C(c5ccc(C(=O)O)cc5)=CC[C@]4(C)C3)CC=C12 [Example 9] | > 3000 |
| COc1cccc(C(=O)N2CC=C3C(C)(C)C(c4ccc(C(=O)O)cc4)=CC[C@]3(C)C2)c1 [Example 18] | > 3000 |
| CC1(C)C(c2ccc(C(=O)O)cc2)=CC[C@]2(C)CN(c3cc(N)cc(-c4nnn(CCN5CCS(=O)(=O)CC5)n4)c3)CC=C12 [Example B3, (S)-4-(2-(3-amino-5-(2-(2-(1,1-dioxidothiomorpholino)ethyl)-2H-tetrazol-5-yl)phenyl)-5,5,8a-trimethyl-1,2,3,5,8,8a-hexahydroisoquinolin-6-yl)benzoic acid] | > 3000 |
| CC1(C)C(c2ccc(C(=O)O)cc2)=CC[C@]2(C)CN(C(=O)[C@H]3C[C@@H]4C=C[C@H]3C4)CC=C12 [Example A86] | > 3000 |
| CCn1c(-c2ccccc2C(=O)N2CC=C3C(C)(C)C(c4ccc(C(=O)O)cc4)=CC[C@]3(C)C2)nc2cc(S(C)(=O)=O)ccc21 [Example A286] | > 3000 |
| CN1CCC2C(C)(C)[C@H](c3ccc(C(=O)O)cc3)CC[C@]2(C)C1 (single isomer, unassigned) [Example 90] | > 3000 |
| CC1(C)C(c2ccc(C(=O)O)cc2)=CC[C@]2(C)CN(C(=O)c3ccc(F)cc3)CC=C12 [Example 3] | > 3000 |
| CC1(C)C(c2ccc(C(=O)O)cc2)=CC[C@]2(C)CN(C(=O)c3cccc(C(=O)N4CC=C5C(C)(C)C(c6ccc(C(=O)O)cc6)=CC[C@]5(C)C4)c3)CC=C12 [Example 58, 4,4′-((8aS,8a′S)-isophthaloylbis(5,5,8a-trimethyl-1,2,3,5,8,8a-hexahydroisoquinoline-2,6-diyl))dibenzoic acid] | < 500 |
| CC1(C)C(c2ccc(C(=O)O)cc2)=CC[C@]2(C)CN(C(=O)c3ccccc3-c3nc4cc(F)c(F)cc4[nH]3)CC=C12 [Example A267] | 500 to 3000 |
| CC1(C)C(c2ccc(C(=O)O)cc2)=CC[C@]2(C)CN(C(=O)c3ccccc3-c3nc4c([N+](=O)[O-])cccc4[nH]3)CC=C12 [Example A272] | < 500 |
| CC1(C)C(c2ccc(C(=O)O)cc2)=CC[C@]2(C)CN(C(=O)c3ccc(C(=O)N4CCS(=O)(=O)CC4)cc3)CC=C12 [Example 69] | > 3000 |
| CN(C)c1cccc(C(=O)N2CC=C3C(C)(C)C(c4ccc(C(=O)O)cc4)=CC[C@]3(C)C2)c1 [Example 24] | > 3000 |
| CC1(C)C(c2ccc(C(=O)O)cc2)=CC[C@]2(C)CN(C(=O)C(=O)O)CC=C12 [Example 10] | > 3000 |
| CN1CCC2C(C)(C)[C@@H](c3ccc(C(=O)O)cc3)CC[C@]2(C)C1 (single isomer, unassigned) [Example 91] | > 3000 |
| CC(C)C[C@H](N)C(=O)N1CCC(C(=O)N2CC=C3C(C)(C)C(c4ccc(C(=O)O)cc4)=CC[C@]3(C)C2)(c2ccccc2)CC1 [Example 56] | < 500 |
| CC1(C)C(c2ccc(C(=O)O)cc2)=CC[C@@]2(C)CN(C(=O)c3ccccc3-c3nc4c(ccc5ccccc54)o3)CC=C12 [Example A324] | < 500 |
| CC1(C)C(c2ccc(C(=O)O)cc2)=CC[C@]2(C)CN(C(=O)c3ccccc3-c3nc4cc(Cl)c(Cl)cc4[nH]3)CC=C12 [Example A265] | < 500 |
| CC1(C)C(c2ccc(C(=O)O)cc2)=CC[C@]2(C)CN(c3cc(C(=O)O)cc([N+](=O)[O-])c3)CC=C12 [Example B15] | > 3000 |
| CC(C)(C)OC(=O)N1CCCCC1CCC(=O)N1CCC(C(=O)N2CC=C3C(C)(C)C(c4ccc(C(=O)O)cc4)=CC[C@]3(C)C2)(c2ccccc2)CC1 (some centres unmarked) [Example A168] | < 500 |
| CC(C)(C)OC(=O)NCc1ccc(C(=O)N2CC=C3C(C)(C)C(c4ccc(C(=O)O)cc4)=CC[C@]3(C)C2)cc1 [Example 33] | > 3000 |
| Cn1c(-c2ccccc2C(=O)N2CC=C3C(C)(C)C(c4ccc(C(=O)O)cc4)=CC[C@]3(C)C2)nc2ccccc21 [Example A274] | > 3000 |
| CN(C)CCC(=O)N1CC=C2C(C)(C)C(c3ccc(C(=O)O)cc3)=CC[C@]2(C)C1 [Example 34] | > 3000 |
| CC1(C)C(c2ccc(C(=O)O)cc2)=CC[C@]2(C)CN(C(=O)c3ccc(CN4CCS(=O)(=O)CC4)cc3)CC=C12 [Example 31] | > 3000 |
| CC1(C)C(c2ccc(C(=O)O)cc2)=CC[C@]2(C)CN(C(=O)c3cncc(C(=O)N4CC=C5C(C)(C)C(c6ccc(C(=O)O)cc6)=CC[C@]5(C)C4)c3)CC=C12 [Example 63] | > 3000 |
| CN(C)CC(=O)N1CC=C2C(C)(C)C(c3ccc(C(=O)O)cc3)=CC[C@]2(C)C1 [Example 35] | > 3000 |

same assay, conditions: Renilla, NL43, read-out: 10% FBS EC50, 10% FBS, numeric values

| Structure (SMILES) | EC50 [nM] |
| --- | --- |
| CC1(C)C(c2ccc(C(=O)O)cc2)=CC[C@]2(C)CN(C(=O)c3ccccc3-c3nc4cc5c(cc4[nH]3)OCO5)CC=C12 [Example A298] | 60 |
| COc1ccnc(N2CC=C3C(C)(C)C(c4ccc(C(=O)O)cc4)=CC[C@]3(C)C2)n1 [Example B13] | 2700 |
| CC1(C)C(c2ccc(C(=O)O)cc2)=CC[C@]2(C)CN(C(=O)c3ccccc3-n3cccn3)CC=C12 [Example A58] | 1850 |
| CC1(C)C(c2ccc(C(=O)O)cc2)=CC[C@]2(C)CN(C(=O)c3ccccc3-c3nc4cc(F)c(Cl)cc4[nH]3)CC=C12 [Example A260] | 298 |
| CC(C)(C)OC(=O)N1CCC(Cc2ccccc2)(C(=O)N2CC=C3C(C)(C)C(c4ccc(C(=O)O)cc4)=CC[C@]3(C)C2)CC1 [Example 47] | 1070 |
| CC1(C)C(c2ccc(C(=O)O)cc2)=CC[C@]2(C)CN(c3cccc(Br)n3)CC=C12 [Example 76] | 980 |
| CC1(C)C(c2ccc(C(=O)O)cc2)=CC[C@]2(C)CN(C(=O)c3cscc3C(=O)N3CC=C4C(C)(C)C(c5ccc(C(=O)O)cc5)=CC[C@]4(C)C3)CC=C12 [Example 64] | 1060 |
| CC1(C)C(c2ccc(C(=O)O)cc2)=CC[C@]2(C)CN(C(=O)c3ccccc3-c3nc4c(Cl)cccc4[nH]3)CC=C12 [Example A270] | 14 |
| CC1(C)C(c2ccc(C(=O)O)cc2)=CC[C@]2(C)CN(C(=O)c3ccccc3-c3nc4cc(Br)c(Br)cc4[nH]3)CC=C12 [Example 99, (S)-4-(2-(2-(5,6-dibromo-1H-benzo[d]imidazol-2-yl)benzoyl)-5,5,8a-trimethyl-1,2,3,5,8,8a-hexahydroisoquinolin-6-yl)benzoic acid] | 16 |
| CC1(C)C(c2ccc(C(=O)O)cc2)=CC[C@]2(C)CN(C(=O)C3(c4ccccc4)CCN(C(=O)CCN4CCS(=O)(=O)CC4)CC3)CC=C12 [Example 95] | 2700 |
| Cc1ncc(C)n2nc(-c3ccc4c(c3)nc(-c3ccccc3C(=O)N3CC=C5C(C)(C)C(c6ccc(C(=O)O)cc6)=CC[C@]5(C)C3)n4C)nc12 [Example A278] | 4960 |
| CC1(C)C(c2ccc(C(=O)O)cc2)=CC[C@]2(C)CN(C(=O)c3ccc4cc[nH]c4c3)CC=C12 [Example 39] | 1490 |
| CC1(C)C(c2ccc(C(=O)O)cc2)=CC[C@]2(C)CN(C(=O)C3(c4ccccc4)CCN(S(=O)(=O)CCCCl)CC3)CC=C12 [Example A197] | 147 |
| CC(C)C[C@H](NC(=O)OC(C)(C)C)C(=O)N1CCC(C(=O)N2CC=C3C(C)(C)[C@@H](c4ccc(C(=O)O)cc4)CC[C@]3(C)C2)(c2ccccc2)CC1 [Example 89] | 67 |
| CC(C)(C)OC(=O)N1CCC(C(=O)N2CC=C3C(C)(C)C(c4ccc(C(=O)O)cc4)=CC[C@]3(C)C2)(c2ccccc2)CC1 [Example 46] | 250 |
| CC(C)C[C@@H](N)C(=O)N1CCC(C(=O)N2CC=C3C(C)(C)C(c4ccc(C(=O)O)cc4)=CC[C@]3(C)C2)(c2ccccc2)CC1 [Example 57] | 148 |
| CC1(C)C(c2ccc(C(=O)O)cc2)=CC[C@]2(C)CN(C(=O)c3ccccc3-c3nc4ccccc4n3CC34CCN(CC3)CC4)CC=C12 [Example A275] | 1700 |
| CCOc1cccc2cc(C(=O)N3CC=C4C(C)(C)C(c5ccc(C(=O)O)cc5)=CC[C@]4(C)C3)oc12 [Example A46] | 1320 |
| COc1ccccc1C(=O)N1CC=C2C(C)(C)C(c3ccc(C(=O)O)cc3)=CC[C@]2(C)C1 [Example 17] | 1690 |

same assay, conditions: read-out: 10% FBS EC50, 10% FBS, numeric values

| Structure (SMILES) | EC50 [nM] |
| --- | --- |
| CN1Cc2c(ccc3nc(-c4ccccc4C(=O)N4CC=C5C(C)(C)C(c6ccc(C(=O)O)cc6)=CC[C@]5(C)C4)[nH]c23)C(c2ccccc2)C1 (some centres unmarked) [Example 101] | 2980 |
